Assays:
HCV genotype 1b replicon = experiment: HCV replicon assay, genotype 1b replicon EC50; type: cell-based, Hepatitis C virus; conditions: Hepatitis C virus, genotype 1b replicon; read-out: EC50 [gt-1b]
How it was run: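 Assay format: compound titration on stable replicon cells, no G418 during treatment, 24 to 48 hours. Lysates were assayed for replicon RNA (hybridization/protection or TaqMan) or luciferase; EC50 fitted to four parameters against DMSO.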

[1] = target: HCV NS3/4A protease genotype 1b (Hepatitis C virus genotype 1b, UniProt P26663); experiment: HCV NS3/4A protease time-resolved fluorescence (TRF) assay, Ki against genotype 1b; type: biochemical; conditions: IC50 [gt-1b] (nM), NS3/4A genotype 1b, enzyme 0.2 nM
How it was run: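 Time-resolved fluorescence readout of NS3/4A cleavage of 25 nM europium-labelled peptide over 2.5 h at room temperature, enzyme levels set for signal/background 10–30 (0.2, 0.4, 0.025 nM for 1b, A156T, 3a). Ki by IC50=Ki(1+[S]/KM).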

Structure (SMILES): Cc1nc2ccccc2c2c1O[C@]1(CC2)C[C@H]2C(=O)N[C@]3(C(=O)NS(=O)(=O)C4(C)CC4)C[C@H]3/C=C\CCCCC[C@H](NC(=O)OCC(F)F)C(=O)N2C1 [Example 121, 2,2-difluoroethyl [(2R,6S,12Z,13aS,14aR,16aS)-5′-methyl-14a-{[(1-methylcyclopropyl)sulfonyl]carbamoyl}-5,16-dioxo-1,1′,2′,5,6,7,8,9,10,11,13a,14,14a,15,16,16a-hexadecahydrospiro[cyclopropa[e]pyrrolo[1,2-a][1,4]diazacyclopentadecine-2,3′-pyrano[2,3-c]quinolin]-6-yl]carbamate]
- EC50 (HCV genotype 1b replicon): 6.46 nM
- IC50 [1]: 0.025 nM

Structure (SMILES): Cc1nc2ccc(OC(F)(F)F)cc2c2c1O[C@]1(CC2)C[C@H]2C(=O)N[C@]3(C(=O)NS(=O)(=O)C4(C)CC4)C[C@H]3/C=C\CCCCC[C@H](NC(=O)OC3(C)CC3)C(=O)N2C1 [Example 122, 1-methylcyclopropyl [(2R,6S,12Z,13aS,14aR,16aS)-5′-methyl-14a-{[(1-methylcyclopropyl)sulfonyl]carbamoyl}-5,16-dioxo-9′-(trifluoromethoxy)-1,1′,2′,5,6,7,8,9,10,11,13a,14,14a,15,16,16a-hexadecahydrospiro[cyclopropa[e]pyrrolo[1,2-a][1,4]diazacyclopentadecine-2,3′-pyrano[2,3-c]quinolin]-6-yl]carbamate]
- EC50 (HCV genotype 1b replicon): 1.98 nM
- IC50 [1]: 0.019 nM

Structure (SMILES): Cc1nc2ccc(OC(F)(F)F)cc2c2c1O[C@]1(CC2)C[C@H]2C(=O)N[C@]3(C(=O)NS(=O)(=O)C4(C)CC4)C[C@H]3/C=C\CCCCC[C@H](NC(=O)OC(C)C)C(=O)N2C1 [Example 123, propan-2-yl [(2R,6S,12Z,13aS,14aR,16aS)-5′-methyl-14a-{[(1-methylcyclopropyl)sulfonyl]carbamoyl}-5,16-dioxo-9′-(trifluoromethoxy)-1,1′,2′,5,6,7,8,9,10,11,13a,14,14a,15,16,16a-hexadecahydrospiro[cyclopropa[e]pyrrolo[1,2-a][1,4]diazacyclopentadecine-2,3′-pyrano[2,3-c]quinolin]-6-yl]carbamate]
- EC50 (HCV genotype 1b replicon): 2.07 nM
- IC50 [1]: 0.017 nM

Structure (SMILES): Cc1nc2ccc(OC(F)(F)F)cc2c2c1O[C@]1(CC2)C[C@H]2C(=O)N[C@]3(C(=O)NS(=O)(=O)C4(C)CC4)C[C@H]3/C=C\CCCCC[C@H](NC(=O)OCC(C)C)C(=O)N2C1 [Example 124, 2-methylpropyl [(2R,6S,12Z,13aS,14aR,16aS)-5′-methyl-14a-{[(1-methylcyclopropyl)sulfonyl]carbamoyl}-5,16-dioxo-9′-(trifluoromethoxy)-1,1′,2′,5,6,7,8,9,10,11,13a,14,14a,15,16,16a-hexadecahydrospiro[cyclopropa[e]pyrrolo[1,2-a][1,4]diazacyclopentadecine-2,3′-pyrano[2,3-c]quinolin]-6-yl]carbamate]
- EC50 (HCV genotype 1b replicon): 2.49 nM
- IC50 [1]: 0.016 nM

Structure (SMILES): Cc1nc2ccc(OC(F)(F)F)cc2c2c1O[C@]1(CC2)C[C@H]2C(=O)N[C@]3(C(=O)NS(=O)(=O)C4(C)CC4)C[C@H]3/C=C\CCCCC[C@H](NC(=O)OC3CCCC3)C(=O)N2C1 [Example 125, cyclopentyl [(2R,6S,12Z,13aS,14aR,16a5)-5′-methyl-14a-{[(1-methylcyclopropyl)sulfonyl]carbamoyl}-5,16-dioxo-9′-(trifluoromethoxy)-1,1′,2′,5,6,7,8,9,10,11,13a,14,14a,15,16,16a-hexadecahydrospiro[cyclopropa[e]pyrrolo[1,2-a][1,4]diazacyclopentadecine-2,3′-pyrano[2,3-c]quinolin]-6-yl]carbamate]
- EC50 (HCV genotype 1b replicon): 3.71 nM
- IC50 [1]: 0.016 nM

Structure (SMILES): Cc1nc2ccccc2c2c1O[C@]1(CC2)C[C@H]2C(=O)N[C@]3(C(=O)NS(=O)(=O)C4(C)CC4)C[C@H]3/C=C\CCCCC[C@H](NC(=O)OC(C)C3CC3)C(=O)N2C1 (stereo partly drawn) [Example 126, 1-cyclopropylethyl [(2R,6S,12Z,13aS,14aR,16aS)-5′-methyl-14a-{[(1-methylcyclopropyl)sulfonyl]carbamoyl}-5,16-dioxo-1,1′,2′,5,6,7,8,9,10,11,13a,14,14a,15,16,16a-hexadecahydrospiro[cyclopropa[e]pyrrolo[1,2-a][1,4]diazacyclopentadecine-2,3′-pyrano[2,3-c]quinolin]-6-yl]carbamate]
- EC50 (HCV genotype 1b replicon): 2.61 nM
- IC50 [1]: 0.029 nM

Structure (SMILES): Cc1nc2ccccc2c2c1O[C@]1(CC2)C[C@H]2C(=O)N[C@]3(C(=O)NS(=O)(=O)C4(C)CC4)C[C@H]3/C=C\CCCCC[C@H](NC(=O)OCCF)C(=O)N2C1 [Example 127, 2-fluoroethyl [(2R,6S,12Z,13aS,14aR,16aS)-5′-methyl-14a-{[(1-methylcyclopropyl)sulfonyl]carbamoyl}-5,16-dioxo-1,1′,2′,5,6,7,8,9,10,11,13a,14,14a,15,16,16a-hexadecahydrospiro[cyclopropa[e]pyrrolo[1,2-a][1,4]diazacyclopentadecine-2,3′-pyrano[2,3-c]quinolin]-6-yl]carbamate]
- EC50 (HCV genotype 1b replicon): 0.394 nM
- IC50 [1]: 0.031 nM

Structure (SMILES): COCCOC(=O)N[C@H]1CCCCC/C=C\[C@@H]2C[C@@]2(C(=O)NS(=O)(=O)C2(C)CC2)NC(=O)[C@@H]2C[C@]3(CCc4c(c(C)nc5ccccc45)O3)CN2C1=O [Example 128, 2-methoxyethyl [(2R,6S,12Z,13aS,14aR,16aS)-5′-methyl-14a-{[(1-methylcyclopropyl)sulfonyl]carbamoyl}-5,16-dioxo-1,1′,2′,5,6,7,8,9,10,11,13a,14,14a,15,16,16a-hexadecahydrospiro[cyclopropa[e]pyrrolo[1,2-a][1,4]diazacyclopentadecine-2,3′-pyrano[2,3-c]quinolin]-6-yl]carbamate]
- EC50 (HCV genotype 1b replicon): 2.01 nM
- IC50 [1]: 0.044 nM

Structure (SMILES): Cc1nc2ccccc2c2c1O[C@]1(CC2)C[C@H]2C(=O)N[C@]3(C(=O)NS(=O)(=O)C4(C)CC4)C[C@H]3/C=C\CCCCC[C@H](NC(=O)OCC(F)(F)F)C(=O)N2C1 [Example 129, 2,2,2-trifluoroethyl [(2R,6S,12Z,13aS,14aR,16aS)-5′-methyl-14a-{[(1-methylcyclopropyl)sulfonyl]carbamoyl}-5,16-dioxo-1,1′,2′,5,6,7,8,9,10,11,13a,14,14a,15,16,16a-hexadecahydrospiro[cyclopropa[e]pyrrolo[1,2-a][1,4]diazacyclopentadecine-2,3′-pyrano[2,3-c]quinolin]-6-yl]carbamate]
- EC50 (HCV genotype 1b replicon): 2.11 nM
- IC50 [1]: 0.011 nM

Structure (SMILES): Cc1nc2ccccc2c2c1O[C@]1(CC2)C[C@H]2C(=O)N[C@]3(C(=O)NS(=O)(=O)C4(C)CC4)C[C@H]3/C=C\CCCCC[C@H](NC(=O)OCC(C)(C)C)C(=O)N2C1 [Example 130, 2,2-dimethylpropyl [(2R,6S,12Z,13aS,14aR,16aS)-5′-methyl-14a-{[(1-methylcyclopropyl)sulfonyl]carbamoyl}-5,16-dioxo-1,1′,2′,5,6,7,8,9,10,11,13a,14,14a,15,16,16a-hexadecahydrospiro[cyclopropa[e]pyrrolo[1,2-a][1,4]diazacyclopentadecine-2,3′-pyrano[2,3-c]quinolin]-6-yl]carbamate]
- EC50 (HCV genotype 1b replicon): 1.93 nM
- IC50 [1]: 0.01 nM

Structure (SMILES): Cc1nc2ccccc2c2c1O[C@]1(CC2)C[C@H]2C(=O)N[C@]3(C(=O)NS(=O)(=O)C4(C)CC4)C[C@H]3/C=C\CCCCC[C@H](NC(=O)OC3(C4CC4)CC3)C(=O)N2C1 [Example 131, 1,1′-bi(cyclopropyl)-1-yl [(2R,6S,12Z,13aS,14aR,16aS)-5′-methyl-14a-{[(1-methylcyclopropyl)sulfonyl]carbamoyl}-5,16-dioxo-1,1′,2′,5,6,7,8,9,10,11,13a,14,14a,15,16,16a-hexadecahydrospiro[cyclopropa[e]pyrrolo[1,2-a][1,4]diazacyclopentadecine-2,3′-pyrano[2,3-c]quinolin]-6-yl]carbamate]
- EC50 (HCV genotype 1b replicon): 1.28 nM
- IC50 [1]: 0.003 nM

Structure (SMILES): COc1ccc2c3c(c(C4CC4)nc2c1)O[C@]1(CC3)C[C@H]2C(=O)N[C@]3(C(=O)NS(=O)(=O)C4(C)CC4)C[C@H]3/C=C\CCCCC[C@H](NC(=O)NC(C)(C)C)C(=O)N2C1 [Example 132, (2R,6S,12Z,13aS,14aR,16aS)-6-[(tert-butylcarbamoyl)amino]-5′-cyclopropyl-8′-methoxy-N-[(1-methylcyclopropyl)sulfonyl]-5,16-dioxo-1,1′,2′,6,7,8,9,10,11,13a,14,15,16,16a-tetradecahydrospiro[cyclopropa[e]pyrrolo[1,2-a][1,4]diazacyclopentadecine-2,3′-pyrano[2,3-c]quinoline]-14a(5H)-carboxamide]
- EC50 (HCV genotype 1b replicon): 1.41 nM
- IC50 [1]: 0.002 nM

Structure (SMILES): COc1ccc2c3c(c(C4CC4)nc2c1)O[C@]1(CC3)C[C@H]2C(=O)N[C@]3(C(=O)NS(=O)(=O)C4(C)CC4)C[C@H]3/C=C\CCCCC[C@H](NC(=O)NC3CCCC3)C(=O)N2C1 [Example 133, (2R,6S,12Z,13aS,14aR,16aS)-6-[(cyclopentylcarbamoyl)amino]-5′-cyclopropyl-8′-methoxy-N-[(1-methylcyclopropyl)sulfonyl]-5,16-dioxo-1,1′,2′,6,7,8,9,10,11,13a,14,15,16,16a-tetradecahydrospiro[cyclopropa[e]pyrrolo[1,2-a][1,4]diazacyclopentadecine-2,3′-pyrano[2,3-c]quinoline]-14a(5H)-carboxamide]
- EC50 (HCV genotype 1b replicon): 17.4 nM
- IC50 [1]: 0.007 nM

Source: patent publication US8987195B2 (priority 2012, dated 2015)
